Test results reported in patent US20070218483A1, “SITE-SPECIFIC INCORPORATION OF FLUORINATED AMINO ACIDS INTO PROTEINS” (FRANKLIN AND MARSHALL COLLEGE, priority 2006, published 2007).
“Also recorded” adds a separate entry of the source.

Columns and labels:
pBpa MjTyrRS/tRNATyrCUA = biological target: T1, pBpa MjTyrRS/tRNATyrCUA (Methanocaldococcus jannaschii, UniProt Q57834, D158T/E107P/I159S/Q56R/V103L/Y32G); assay: Incorporation into protein in response to TAG codon with pBpa synthetase, SDS-PAGE; assay type: cell-based, Methanococcus jannaschii; details: E. coli, amino acid added to the media, pBpa synthetase (SEQ ID NO: 7)
T1 construct: expressed in transfected cells; host or cells: E. coli carrying pDULE-pBpa
Excerpt: Incorporation of additional ^19F amino acids with p-benzoyl-phenylalanine (pBpa) synthetase. Using a synthetase known to selectively incorporate pBpa (SEQ ID NO: 7), other ^19F amino acids of similar shape and electrostatics may be incorporated site-specifically into proteins.
Analysis of incorporation of p-fluorobenzoylphenylalanine into protein response to a TAG stop codon in E. coli with evolved pBpa MjTyrRS/tRNA TyrCUA by SDS-PAGE.
(§1) To improve the incorporation efficiency of dfBpa, the active site of pBpa MjTyrRS was altered to better accommodate the slightly larger dfBpa amino acid. Amino acids in the active site (Ser159, Leu65) were reduced in size or reduced in polarity to better accept dfBpa.
(§2) Analysis of fluorinated pBpa-protein by SDS-PAGE.

[1] = biological target: T2, modified pBpa MjTyrRS/tRNATyrCUA (Methanocaldococcus jannaschii, UniProt Q57834, D158T/E107P/I159A/L65V/Q56R/V103L/Y32G); assay: Incorporation into protein in response to TAG codon with modified pBpa synthetase (Ser159Ala, Leu65Val), SDS-PAGE; assay type: cell-based, Methanococcus jannaschii; details: E. coli, modified pBpa synthetase (SEQ ID NO: 8), Ser159Ala and Leu65Val
T2 construct: expressed in transfected cells; host or cells: E. coli
Excerpt: as §1, §2

HDH = assay: Photo crosslinking of protein upon ultraviolet irradiation, SDS-PAGE; details: amino acid incorporated in protein
Excerpt: The amino acid pBpa in a protein may be used to determine the structural organization of the protein and conformational changes by initiating crosslinking with nearby peptides via externally provided ultraviolet irradiation. […] The time course of HDH-225pBpa and HDH-225-dfBpa during irradiation was studied by SDS-PAGE.

E. coli DH10B cells = details: in vivo NMR cell samples
Description: Labeled NTR was also monitored in vivo.
E. coli DH10B cells containing pDule-tfmPhe1 and pTrc-NTR-124TAG or pTrc-NTR-36TAG were grown in modified minimal media containing supplemented flavin at 10 μM and induced to produce protein with 1.0 mM IPTG at an OD of 0.8. […] Cells were harvested 18 hrs after induction by centrifugation and stored at −80° C. Cells (from 0.5 L of media) for in vivo NMR measurements were thawed on ice, resuspended in 50 mL of PBS buffer (10 mM NaH2PO4, 140 mM NaCl pH 7.8) at 0° C., and repelleted by centrifugation at 5000 g. The cells for in vivo NMR spectra shown for NTR-tfmPhe-36 and NTR-tfmPhe-124 were washed 3 times and 5 times respectively.
NMR data were collected using a Varian Unity INOVA 500 MHz spectrometer fitted with a 5 mm broadband probe. The proton coil was tuned to fluorine frequency (470.114 MHz). Standard decoupling parameters were used with a 100,000 Hz spectral width, 9 μs pulse length (approximately 45°), 2.00 s acquisition time, and 1.00 s relaxation delay. A 10 Hz line broadening was applied and all spectra were recorded at 25±0.2° C. All spectra were locked and referenced to an internal standard containing 0.2% solution of 4-fluorotoluene in toluene-d8 (set at −120.771 ppm referenced from trifluorotoluene at −65.000 ppm). […]

[2] = tested on: evolved tfmPhe MjTyrRS/tRNATyrCUA; assay: Incorporation into protein in response to TAG codon with tfmPhe synthetase, SDS-PAGE; assay type: cell-based, Methanococcus jannaschii; details: E. coli, amino acid added to the media
Excerpt: The two top performing synthetases were subcloned into the pDule vector (pDule-tfmPhe1 and pDule-tfmPhe2) for further analysis of a protein containing tfmPhe. The medium copy pDule plasmid is designed to contain both the tRNA^TyrCUA and new synthetase allowing a standard high copy protein expression plasmid for use in production of tfmPhe containing protein.
Selection of tfmPhe specific tRNA-aminoacyl synthetase. A library of tRNA-aminoacyl synthetases was encoded on a kanamycin (Kn) resistant plasmid, pBK-JM-Lib, under control of the constitutive E. coli GlnRS promoter and terminator. The library was transformed by electroporation into DH10B E. coli containing the tetracycline (Tet) resistant positive selection plasmid, pREP2/YC-JYCUA. The positive selection plasmid encodes a mutant tRNA^TyrCUA, an amber disrupted chloramphenicol acetyltransferase, and an amber disrupted T7 RNA polymerase that drives the production of green fluorescent protein. The first positive selection was performed in the presence of 1 mM tfmPhe, 70 μg/mL chloramphenicol (Cm), 50 μg/mL Kn, and 25 μg/mL Tet in a modified GMML media at 37° C. with 250 rpm shaking until the OD was >1.0. Plasmid DNA was extracted and pBK-JM-Lib was separated from pREP2/YC-JYCUA by agarose gel electrophoresis. […]

T2 sequence (Q57834 whole entry Y32G/Q56R/L65V/V103L/E107P/D158T/I159A): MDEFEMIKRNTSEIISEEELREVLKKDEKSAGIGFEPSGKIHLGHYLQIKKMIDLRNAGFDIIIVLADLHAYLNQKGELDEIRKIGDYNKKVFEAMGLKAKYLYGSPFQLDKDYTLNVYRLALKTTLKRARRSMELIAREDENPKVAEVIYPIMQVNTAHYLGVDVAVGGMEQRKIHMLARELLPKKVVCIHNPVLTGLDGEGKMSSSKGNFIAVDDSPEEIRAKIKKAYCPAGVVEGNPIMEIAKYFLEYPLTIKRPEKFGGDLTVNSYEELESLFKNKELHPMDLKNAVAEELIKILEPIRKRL
T1 sequence (Q57834 whole entry Y32G/Q56R/V103L/E107P/D158T/I159S): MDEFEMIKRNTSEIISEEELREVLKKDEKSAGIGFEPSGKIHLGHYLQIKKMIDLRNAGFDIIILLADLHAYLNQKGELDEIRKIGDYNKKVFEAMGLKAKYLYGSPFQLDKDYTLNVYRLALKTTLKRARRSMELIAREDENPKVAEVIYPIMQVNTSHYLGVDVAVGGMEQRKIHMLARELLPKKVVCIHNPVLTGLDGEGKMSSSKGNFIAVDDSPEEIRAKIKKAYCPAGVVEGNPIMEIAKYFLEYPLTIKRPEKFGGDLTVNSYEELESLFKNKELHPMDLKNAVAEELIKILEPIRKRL

| Compound | incorporation into protein in response to TAG codon (pBpa MjTyrRS/tRNATyrCUA) | crosslinking upon irradiation (HDH) | cell permeability (E. coli DH10B cells) | further results |
| --- | --- | --- | --- | --- |
| N[C@@H](Cc1ccc(C(=O)c2ccccc2)cc1)C(=O)O [pBpa, p-benzoyl-phenylalanine, reference compound] | full length HDH was produced containing pBpa |  |  | incorporation into protein in response to TAG codon [1]: high efficiency; also recorded: full length HDH was produced containing pBpa |
| O=C(N[C@@H](Cc1ccc(F)cc1)C(=O)O)c1ccccc1 [compound 7, p-fluorobenzoylphenylalanine] | incorporated in the location coded by TAG | shown to crosslink upon irradiation |  | incorporation into protein in response to TAG codon (pBpa MjTyrRS/tRNATyrCUA; listed as pfBpa): full length HDH was produced containing pfBpa |
| O=C(O)c1cccnc1 [nicotinic acid] |  |  | poor cell permeability |  |
| N[C@@H](Cc1ccc(C(=O)c2c(F)cccc2F)cc1)C(=O)O [compound 6, 2′,6′-difluoro-p-benzoylphenylalanine] | incorporated in the location coded by TAG; also recorded: less effectively than pBpa or 7 | shown to crosslink upon irradiation |  | incorporation into protein in response to TAG codon (pBpa MjTyrRS/tRNATyrCUA; listed as dfBpa): full length HDH was produced containing dfBpa; incorporation into protein in response to TAG codon ([1]; listed as dfBpa): high efficiency; also recorded: length HDH was produced containing dfBpa |
| NC(=O)C1=CN([C@@H]2O[C@H](COP(=O)(O)OP(=O)(O)OC[C@H]3O[C@@H](n4cnc5c(N)ncnc54)[C@H](O)[C@@H]3O)[C@@H](O)[C@H]2O)C=CC1 [NADH, reduced nicotinamide adenine dinucleotide] |  |  | poor cell permeability |  |
| Cc1ccc(C[C@H](N)C(=O)O)cc1F [compound 4, 4-methyl-3-fluorophenylalanine] |  |  |  | incorporation into protein in response to TAG codon [2]: incorporated in the location coded by TAG; also recorded: full length HDH was produced containing 4 |
